Where two headings read alike, the source gives them in different places.
Tests used:
SARS-COV-2 [1] = assay: SARS-COV-2 RNA loads in human primary monocytes; assay type: cell-based; details: 24 h
Procedure: FIG. 5A, 5B and 5C. The compounds impair SARS-COV-2 RNA synthesis and SARS-COV-2-induced release of inflammatory mediators in human primary monocytes.
Human primary monocytes were obtained after 3 h of plastic adherence of peripheral blood mononuclear cells (PBMCs). PBMCs were isolated from healthy donors by density gradient centrifugation (Ficoll-Paque, GE Healthcare). PBMCs (2.0×10^6 cells) were plated onto 48-well plates (NalgeNunc) in RPMI-1640 without serum for 2 to 4 h. Non-adherent cells were removed, and the remaining monocytes were maintained in DMEM with 5% human serum (HS; Millipore) and penicillin/streptomycin. Monocytes were infected at MOI of 0.1. After 1 h inoculation period, cells were washed with phosphate saline buffer (PBS) to remove unbounded viruses and treated with 1 μM of the indicated compounds. After 24 h after infection, cell monolayers werc lysed total viral RNA was extracted, quantitative RT-PCR was performed, to detect the SARS-COV-2 and the housekeeping gene RNAse P.

SARS-COV-2 [2] = assay: Combination with SARS-COV-2 nsp14 (exonuclease) inhibitors in Calu-3 cells, infectious virus titers; assay type: cell-based
[3] = target: human ERG potassium channel (ether-a-gogo-related gene, Kv11.1) (Homo sapiens, UniProt Q12809); assay: hERG FLIPR Potassium assay in HEK293 cells; details: up to 300 μM
[4] = Pharmacokinetics of MB-905 in plasma of the rat; assay type: in vivo
Procedure: The pharmacokinetic assay was performed by using mice of the CDI strain (20-30 g) or rat Sprague Dawley (250-300 g) of both sexes from the Center of Innovation and Preclinical Studies (CIEnP) vivarium. […] After oral […] administration, blood was collected at times of 0.25, 0.5, 1, 2, 4, 8 and 24, while after intravenous administration the collection times were 0.083, 0.25, 0.5, 1, 2 and 4 hours. […] The pharmacokinetic parameters evaluated were: AUC (AUC 0-T or, AUC 0-∞), Cmax, Tmax, T1/2, volume of distribution, clearance, elimination constant and bioavailability.

SARS-COV-2 [5] = assay: SARS-COV-2 viral RNA synthesis in HuH-7 cells (real time RT-PCR); assay type: cell-based
[6] = test system: murine hepatitis virus (MHV); assay type: in vivo, mice; details: DAC 60 mg/kg/day
[7] = Pharmacokinetics of MB-905 in three pre-formulations in mice; assay type: in vivo
Source text: FIG. 21. Pharmacokinetics of MB-905 in three pre-formulations in mice.
Thus, the pre-formulation was used for most subsequent in vivo studies.

SARS-COV-2 viral RNA = assay: Immunoprecipitation of viral RNA with anti-kinetin antibody, RT-PCR; assay type: cell-based; details: SARS-COV-2-infected calu-3 cells
[8] = Cytotoxicity assay (XTT) in Huh-7 cells; assay type: cell-based; details: human
Procedure: In parallel, cytotoxicity assays were performed. Monolayers of 1.5×10^4 cells in 96-well plates were treated for 3 days with various concentrations (semi-log dilutions from 1,000 to 10 μM) of the antiviral drugs. Then, 5 mg/mL 2,3-bis-(2-methoxy-4-nitro-5-sulfophenyl)-2H-tetrazolium-5-carboxanilide (XTT) in DMEM was added to the cells in the presence of 0.01% of N-methyl dibenzopyrazine methyl sulfate (PMS).

SARS-COV-2 [9] = test system: SARS-COV-2
[10] = Severe acute respiratory syndrome coronavirus 2, Calu-3, alone or in combination as labelled
[11] = both sexes, Sprague Dawley, rat, plasma, po, 10 mg/kg, 10 mg/kg (v.o.)
[12] = both sexes, Sprague Dawley, rat, plasma, po, 30 mg/kg, 30 mg/kg (v.o.)
[13] = mouse, plasma, po, 3 mg/kg, 5% Carboxymethylcellulose, 3 mg/kg (v.o.)
[14] = mouse, plasma, po, 3 mg/kg, 5% Tween80 + 95% PEG400, 3 mg/kg (p.o.)
[15] = mouse, plasma, po, 3 mg/kg, 5% ethanol, 30% Propylene Glycol, 45% PEG 400, 20% water, 3 mg/kg (v.o.)
[16] = mouse, plasma, po, 30 mg/kg, 5% Carboxymethylcellulose, 30 mg/kg (p.o.)
[17] = mouse, plasma, po, 30 mg/kg, 5% Tween80 + 95% PEG400, 30 mg/kg (p.o.)
[18] = mouse, plasma, po, 30 mg/kg, 5% ethanol, 30% Propylene Glycol, 45% PEG 400, 20% water, 30 mg/kg (p.o.)
[19] = mouse, plasma, po, 550 mg/kg, 5% ethanol, 30% Propylene Glycol, 45% PEG 400, 20% water, 550 mg/kg (p.o.)
[20] = Severe acute respiratory syndrome coronavirus 2, Calu-3, 72 h, Calu-3 (MOI 0.5 72 h), daily treatment
[21] = Severe acute respiratory syndrome coronavirus 2, Calu-3, 72 h, Calu-3 (MOI 0.5 72 h), single moment treatment
[22] = Severe acute respiratory syndrome coronavirus 2, Calu-3, Table 6, Calu-3, daily treatment
[23] = Severe acute respiratory syndrome coronavirus 2, Calu-3, Table 6, Calu-3, single treatment

Sequence of human ERG potassium channel (ether-a-gogo-related gene, Kv11.1) (Q12809 whole entry): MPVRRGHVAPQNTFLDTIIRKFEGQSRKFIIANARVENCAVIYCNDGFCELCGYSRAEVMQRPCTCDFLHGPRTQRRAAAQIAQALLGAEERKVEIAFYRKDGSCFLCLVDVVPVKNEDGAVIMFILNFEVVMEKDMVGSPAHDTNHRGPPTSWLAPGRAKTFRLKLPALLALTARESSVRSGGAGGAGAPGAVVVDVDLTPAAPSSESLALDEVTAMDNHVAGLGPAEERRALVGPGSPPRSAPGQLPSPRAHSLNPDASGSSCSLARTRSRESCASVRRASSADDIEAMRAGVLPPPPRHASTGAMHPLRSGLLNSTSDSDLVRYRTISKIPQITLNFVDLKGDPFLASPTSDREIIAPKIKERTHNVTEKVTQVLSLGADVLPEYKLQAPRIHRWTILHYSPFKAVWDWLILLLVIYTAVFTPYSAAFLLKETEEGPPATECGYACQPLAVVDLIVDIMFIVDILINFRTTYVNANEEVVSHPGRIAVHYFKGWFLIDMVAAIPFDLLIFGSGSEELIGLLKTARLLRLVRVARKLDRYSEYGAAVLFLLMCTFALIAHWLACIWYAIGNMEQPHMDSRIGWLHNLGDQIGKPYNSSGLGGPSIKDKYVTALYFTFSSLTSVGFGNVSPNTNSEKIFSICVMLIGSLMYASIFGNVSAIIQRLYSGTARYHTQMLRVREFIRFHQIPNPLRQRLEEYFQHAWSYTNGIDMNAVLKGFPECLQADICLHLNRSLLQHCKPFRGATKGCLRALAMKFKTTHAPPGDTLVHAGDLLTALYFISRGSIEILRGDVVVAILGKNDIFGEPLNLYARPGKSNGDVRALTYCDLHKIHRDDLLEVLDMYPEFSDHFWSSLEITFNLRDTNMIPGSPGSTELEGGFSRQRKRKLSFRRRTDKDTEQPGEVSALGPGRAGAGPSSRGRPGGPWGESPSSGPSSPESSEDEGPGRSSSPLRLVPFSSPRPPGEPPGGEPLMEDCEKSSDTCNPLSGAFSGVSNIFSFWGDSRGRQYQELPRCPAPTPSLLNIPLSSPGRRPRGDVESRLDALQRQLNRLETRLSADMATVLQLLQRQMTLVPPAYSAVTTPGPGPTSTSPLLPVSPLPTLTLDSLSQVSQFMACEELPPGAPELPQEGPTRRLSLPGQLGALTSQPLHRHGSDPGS

c1coc(CNc2ncnc3[nH]cnc23)c1 [MB-905, kinetin]
viral RNA levels/cell (SARS-COV-2 [1]): reduced | EC50 (SARS-COV-2 [2]; [10]): 0.3 µM | EC90 (SARS-COV-2 [2]; [10]): 8 µM | effect of co-treatment with raltegravir or dolutegravir (iEXO) on inhibition of SARS-COV-2 (SARS-COV-2 [2]; calu-3, drug 10 μM, raltegravir or dolutegravir 5 μM): synergistic | inhibition of potassium permeation through the hERG channel [3]: about 20% | F ([4]; 3 mg/kg (i.v.)): 100% | Cmax ([4]; 3 mg/kg (i.v.), 3 mg/kg): 123.61 ng/mL | Vz ([4]; 3 mg/kg (i.v.), 3 mg/kg): 10.40 L/kg | CL ([4]; 10 mg/kg (v.o.)): 241.09 mL/min/kg | Ke ([4]; 10 mg/kg (v.o.)): 0.47 h⁻¹ | Vz ([4]; 10 mg/kg (v.o.)): 30.37 L/kg | Cmax ([4]; 10 mg/kg (v.o.), 10 mg/kg): 549.96 ng/mL | F ([4]; 10 mg/kg (v.o.), 10 mg/kg): 98.8% | T1/2 ([4]; 10 mg/kg (v.o.), 10 mg/kg): 1.45 h | F ([4]; 30 mg/kg (v.o.)): 64.7% | Ke ([4]; 30 mg/kg (v.o.)): 0.18 h⁻¹ | Vz ([4]; 30 mg/kg (v.o.)): 109.18 L/kg | CL ([4]; 30 mg/kg (v.o.), 30 mg/kg): 330.57 mL/min/kg | Cmax ([4]; both sexes, Sprague Dawley, rat, plasma, iv, 3 mg/kg, 3 mg/kg (i.v.), read-out: Cmax): 99.4 ng/mL | Vd ([4]; both sexes, Sprague Dawley, rat, plasma, iv, 3 mg/kg, 3 mg/kg (i.v.), read-out: Vz): 13.4 L/kg | AUC [4, 11]: 762 ng·h/mL | AUC(0-t) [4, 11]: 666 ng·h/mL | Tmax [4, 11]: 0.25 h | half-life [4, 11]: 1.46 h | Cmax ([4]; both sexes, Sprague Dawley, rat, plasma, po, 10 mg/kg, 10 mg/kg (v.o.), read-out: Cmax): 545 ng/mL | AUC [4, 12]: 1500 ng·h/mL | AUC(0-t) [4, 12]: 1500 ng·h/mL | EC50 (SARS-COV-2 [5]; Severe acute respiratory syndrome coronavirus 2, Huh-7 (MOI 0.1 48 h), read-out: EC50): 0.1 µM | anti-coronavirus activity with simultaneous adenine (SARS-COV-2 [5]; huh-7, adenine at 10 μM): prevented | anti-coronavirus activity (SARS-COV-2 replication) (SARS-COV-2 [5]; huh-7, treatment just after inoculation): concentration dependent inhibition | weight recovery ([6]; MB-905 250 mg/kg/day): did not allow complete weight recovery | inflammatory cells in the respiratory tract ([6]; day 11, MB-905 250 mg/kg/day): less inflammatory cells | mortality ([6]; oral gavage daily from day 2, MB-905 250 mg/kg/day): reduced the mice mortality by half | Cmax ([7]; 5% ethanol, 30% Propylene Glycol, 45% PEG 400, 20% water, 30 mg/kg (p.o.)): 569.97 ng/mL | Cmax ([7]; 5% ethanol, 30% Propylene Glycol, 45% PEG 400, 20% water, 550 mg/kg (p.o.)): 1053.37 ng/mL | Tmax ([7]; CD1, mouse, plasma, po, 3 mg/kg, 5% Carboxymethylcellulose, 3 mg/kg (v.o.)): 0.25 h | Cmax ([7]; CD1, mouse, plasma, po, 3 mg/kg, 5% Carboxymethylcellulose, 3 mg/kg (v.o.), read-out: Cmax): 70.2 ng/mL | Tmax ([7]; CD1, mouse, plasma, po, 3 mg/kg, 5% Tween80 + 95% PEG400, 3 mg/kg (p.o.)): 0.25 h | Cmax ([7]; CD1, mouse, plasma, po, 3 mg/kg, 5% Tween80 + 95% PEG400, 3 mg/kg (p.o.), read-out: Cmax): 60.8 ng/mL | Tmax ([7]; CD1, mouse, plasma, po, 3 mg/kg, 5% ethanol, 30% Propylene Glycol, 45% PEG 400, 20% water, 3 mg/kg (v.o.)): 0.25 h | Cmax ([7]; CD1, mouse, plasma, po, 3 mg/kg, 5% ethanol, 30% Propylene Glycol, 45% PEG 400, 20% water, 3 mg/kg (v.o.), read-out: Cmax): 64 ng/mL | Tmax ([7]; CD1, mouse, plasma, po, 30 mg/kg, 5% Carboxymethylcellulose, 30 mg/kg (p.o.)): 0.25 h | Cmax ([7]; CD1, mouse, plasma, po, 30 mg/kg, 5% Carboxymethylcellulose, 30 mg/kg (p.o.), read-out: Cmax): 504 ng/mL | Tmax ([7]; CD1, mouse, plasma, po, 30 mg/kg, 5% Tween80 + 95% PEG400, 30 mg/kg (p.o.)): 0.25 h | Cmax ([7]; CD1, mouse, plasma, po, 30 mg/kg, 5% Tween80 + 95% PEG400, 30 mg/kg (p.o.), read-out: Cmax): 507 ng/mL | Tmax ([7]; CD1, mouse, plasma, po, 300 mg/kg, 5% Carboxymethylcellulose, 300 mg/kg (p.o.)): 8 h | Cmax ([7]; CD1, mouse, plasma, po, 300 mg/kg, 5% Carboxymethylcellulose, 300 mg/kg (p.o.), read-out: Cmax): 1020 ng/mL | Tmax ([7]; CD1, mouse, plasma, po, 300 mg/kg, 5% Tween80 + 95% PEG400, 300 mg/kg (p.o.)): 0.25 h | Cmax ([7]; CD1, mouse, plasma, po, 300 mg/kg, 5% Tween80 + 95% PEG400, 300 mg/kg (p.o.), read-out: Cmax): 1030 ng/mL | AUC [7, 13]: 107 ng·h/mL | half-life [7, 13]: 2.18 h | AUC [7, 14]: 153 ng·h/mL | half-life [7, 14]: 2.63 h | AUC [7, 15]: 98.4 ng·h/mL | half-life [7, 15]: 1.92 h | AUC [7, 16]: 525 ng·h/mL | half-life [7, 16]: 1.67 h | AUC [7, 17]: 1110 ng·h/mL | half-life [7, 17]: 2.27 h | AUC [7, 18]: 763 ng·h/mL | Tmax [7, 18]: 0.25 h | half-life [7, 18]: 3.61 h | AUC ([7]; mouse, plasma, po, 300 mg/kg, 5% Carboxymethylcellulose, 300 mg/kg (p.o.)): 14800 ng·h/mL | AUC ([7]; mouse, plasma, po, 300 mg/kg, 5% Tween80 + 95% PEG400, 300 mg/kg (p.o.)): 11500 ng·h/mL | AUC [7, 19]: 11600 ng·h/mL | Tmax [7, 19]: 1 h | half-life [7, 19]: 8.63 h | levels of N6-furfuryladenine in viral RNA vs isotype control and nil-treated cells (SARS-COV-2 viral RNA): more than 10 fold | CC50 at 3 days [8]: 560 µM | EC50 (SARS-COV-2 [9]; [20]): 0.03 µM | EC90 (SARS-COV-2 [9]; [20]): 2.1 µM | EC50 (SARS-COV-2 [9]; [21]): 0.31 µM | EC90 (SARS-COV-2 [9]; [21]): 2.8 µM | EC50 (SARS-COV-2 [9]; [22]): 0.03 µM | EC90 (SARS-COV-2 [9]; [22]): 2.1 µM | EC50 (SARS-COV-2 [9]; [23]): 0.31 µM | EC90 (SARS-COV-2 [9]; [23]): 2.8 µM | anti-coronavirus activity with simultaneous adenine (SARS-COV-2 [9]; calu-3, adenine at 10 μM): prevented | anti-coronavirus activity (SARS-COV-2 replication) (SARS-COV-2 [9]; calu-3, treatment just after inoculation): concentration dependent inhibition
